# Legend:
# [1] = system: human keratinocytes and dermal fibroblasts; test: Cytotoxicity summary over human skin cells; format: cell-based; settings: 24 h
# Procedure: (§1) Cells (5 × 10^5 cells/mL) were seeded in 96-well plates (100 μL/well; Thermo Scientific) and allowed to adhere for 24 h. After adhesion, monolayers were exposed to two-fold serial dilutions of the tetrameric and reference peptides (final concentrations: 60–0.05 µM) in fresh DMEM containing 2% (v/v) FBS, and incubated for 24 h at 37 °C in a humidified 5% CO2 atmosphere. Cell viability was assessed using the water-soluble tetrazolium salt (WST-1; Roche) assay, and membrane integrity was measured using the lactate dehydrogenase (LDH) release assay (Abcam), following manufacturer instructions. Absorbance was measured using the Synergy H1 microplate reader (Biotek). Results are expressed as percentages relative to untreated control (for WST-1) and positive lysis control (for LDH) and all experiments were performed in triplicate.
# [2] = system: S. aureus JAR060131; test: Bactericidal (time-kill) kinetics; format: cell-based, Staphylococcus aureus; settings: 3.75 µM peptide, 1 × 10^6 CFU/mL
# Procedure: (§2) Time-kill kinetics were evaluated against S. aureus JAR060131 and A. baumannii RUH875. Mid-logarithmic phase bacterial cultures were diluted to a final concentration of 1 × 10^6 CFU/mL in PBS. Bacteria were incubated with 0.5-, 2-, and 4-fold the LC99.9. Assays were conducted in polypropylene tubes (Micronics) with a total volume of 500 µL. Control samples consisted of bacteria incubated in PBS alone. At 1, 5, 30, and 120 min, 50 µL samples were collected and immediately added to 50 µL of 0.05% (v/v) sodium polyanethol sulfonate (SPS; Sigma-Aldrich) in PBS to neutralize residual peptide activity ([Dankert et al., 1995]). Viable bacterial counts were determined by plating 10 µL of serial 10-fold dilutions onto BA plates. Colonies were counted after 24 h of incubation at 37 °C. All conditions were performed in triplicate.
# [3] = system: human skin fibroblast cells (BJ); test: Cytotoxicity (WST-1 and LDH); format: cell-based; settings: 24 h exposure, triplicate
# Procedure: as §1
# [4] = system: HaCaT human keratinocytes; test: Cytotoxicity (WST-1 and LDH); format: cell-based; settings: 24 h exposure, triplicate
# Procedure: as §1
# [5] = system: human erythrocytes; test: Hemolytic activity; format: cell-based; settings: 1% human erythrocytes in PBS, 45 min, 37 °C, absorbance 540 nm, 30% lysis threshold, peptides up to 60 µM, triplicate, single donor
# Procedure: Whole blood was collected from healthy volunteers after obtaining informed consent, using Vacuette EDTA tubes (Greiner Bio-One). […] For hemolytic assessment, 180 μL of the prepared erythrocyte suspension was mixed with 20 μL of serially diluted peptide solutions (ranging from 60 to 0.03 μM in PBS).
# [6] = system: A. baumannii RUH875; test: Bactericidal (time-kill) kinetics; format: cell-based, Acinetobacter baumannii; settings: within 1 min at 3.75 µM
# Procedure: as §2
# [7] = system: S. aureus LUH14616 (MRSA); test: Ex vivo human skin wound infection model; set-up: species or system Staphylococcus aureus; settings: 200 µM topical, 4 h treatment, versus untreated control (Figure 4C), p < 0.001
# Text: Human skin from 3 donors was obtained via the Residual Tissue Biobank of the Red Cross Hospital (Beverwijk, Netherlands). The use of these coded, post-operative residual tissue samples was approved by patients through the informed opt-out-plus protocol of the Red Cross Hospital Skin ([Code-of-Conduct-for-Health-Research, 2022]) and processed for an ex vivo wound infection model as described ([Dijksteel et al., 2020]). The Wounded skin grafts were sectioned into approximately 1 cm^2 samples using a sterile scalpel and were decontaminated by immersion in 70% ethanol for 30 min, followed by three PBS washes. Samples were placed dermis-down and wound-side-up on stainless steel grids with central indentations, positioned in 12-well plates, and cultured at the air–liquid interface in DMEM at 37 °C and 5% CO2. To confine reagents to the wound area, a resin barrier (OpalDam; Ultradent) was applied to the wounded area and polymerized using a hand-held UV light (Valo X) for 10 s. The wounds were then topically infected with 10 µL of S. aureus LUH14616 suspension of 1 × 10^7 CFU/mL (final dose: 1 × 10^5 CFU/graft) in PBS for 1 h, followed by topical application of 10 µL of peptide solution for 4 h. Chlorhexidine (0.5% (v/v) in 70% ethanol; Entick B.V.) and PBS were used as positive and negative controls, respectively. After treatment, tissue samples were transferred to polypropylene vials containing 1 mL PBS supplemented with 0.025% (v/v) SPS and a 7 mm stainless steel bead. Homogenization was performed using a MagnaLyser System (Roche) with three 30-s cycles at 7,000 rpm, with 30 s of cooling on ice between cycles. Homogenates were 10-fold serially diluted in PBS, and 100 µL aliquots were plated on BA plates. CFUs were enumerated after overnight incubation at 37 °C.
# [8] = DMEM 2% FBS, concentration causing >30% membrane permeation
# [9] = WST-1, concentration causing <70% metabolic activity
substance,measurement,setting,value
"Ac-LKRVWKRVFKLLKRYWRQLKKPVR-NH2 (N-terminus and C-terminus assumed) [SAAP-148, reference compound]","Cytotoxic thresholds, WST-1 and LDH",[1],1.88 to 3.75 µM
same,Time to complete killing,[2],≤ 5 min
same,"Cytotoxicity, LDH leakage",[3]; [8],1.88 µM
same,"Cytotoxicity, Metabolic activity",[3]; [9],3.75 µM
same,"Cytotoxicity, LDH leakage",[4]; [8],3.75 µM
same,"Cytotoxicity, Metabolic activity",[4]; [9],3.75 µM
same,Hemolytic concentration (HC) < 30%,[5],0.47 µM
same,Log reduction in CFU,[6],> 3 log
same,Reduction of bacterial load (CFU counts),[7],significantly reduced bacterial load
